Our source for the MIC values is ChEMBL document CHEMBL5505979, “Novel aminothiazoximone-corbelled ethoxycarbonylpyrimidones with antibiofilm activity to conquer Gram-negative bacteria through potential multitargeting effects” (Eur J Med Chem, 2024).

What all share (format): functional
Assay [1] has as its system Staphylococcus aureus. In words: Anti-bacterial activity against methicillin-resistant Staphylococcus aureus N315 assessed as inhibition of bacterial growth. The settings on record: Staphylococcus aureus, N315; read-out: MIC.
For assay [2], the system named is Staphylococcus aureus. In words: Anti-bacterial activity against methicillin-resistant Staphylococcus aureus ATCC 43300 assessed as inhibition of bacterial growth. To be noted: Staphylococcus aureus, ATCC 43300; read-out: MIC.
For assay [3], the system named is Enterococcus faecalis. In words: Anti-bacterial activity against Enterococcus faecalis V583 assessed as inhibition of bacterial growth.
The test system of assay [4] is Klebsiella pneumoniae. In words: Anti-bacterial activity against Klebsiella pneumoniae KPN325 assessed as inhibition of bacterial growth. The settings on record: Klebsiella pneumoniae, KPN325; read-out: MIC.
Assay [5] deals with Staphylococcus aureus. In words: Anti-bacterial activity against Staphylococcus aureus ATCC 1708 assessed as inhibition of bacterial growth. The settings on record: Staphylococcus aureus, ATCC 1708; read-out: MIC.
Assay [6] concerns Staphylococcus aureus. In words: Anti-bacterial activity against Staphylococcus aureus ATCC 25923 assessed as inhibition of bacterial growth. The settings on record: Staphylococcus aureus, ATCC 25923; read-out: MIC.
For assay [7], the system named is Staphylococcus aureus. In words: Anti-bacterial activity against Staphylococcus aureus ATCC 29213 assessed as inhibition of bacterial growth. The settings on record: Staphylococcus aureus, ATCC 29213; read-out: MIC.
Assay [8] deals with Staphylococcus aureus. In words: Anti-bacterial activity against Staphylococcus aureus ATCC 12600 assessed as inhibition of bacterial growth. The settings on record: Staphylococcus aureus, ATCC 12600; read-out: MIC.
The subject of assay [9] is Staphylococcus aureus. In words: Anti-bacterial activity against Staphylococcus aureus ATCC 6538 assessed as inhibition of bacterial growth.
In assay [10] the test system is Staphylococcus aureus. In words: Anti-bacterial activity against Staphylococcus aureus CMCC (B) 26003 assessed as inhibition of bacterial growth.
The test system of assay [11] is Staphylococcus aureus. In words: Anti-bacterial activity against Staphylococcus aureus CMCC (B) 26001 assessed as inhibition of bacterial growth.
For assay [12], the system named is Escherichia coli. In words: Anti-bacterial activity against Escherichia coli JM109 assessed as inhibition of bacterial growth.
In assay [13] the test system is Escherichia coli. In words: Anti-bacterial activity against Escherichia coli ATCC 25922 assessed as inhibition of bacterial growth.
The test system of assay [14] is Pseudomonas aeruginosa. In words: Anti-bacterial activity against Pseudomonas aeruginosa ST235 assessed as inhibition of bacterial growth. To be noted: Pseudomonas aeruginosa, ST235; read-out: MIC.
Assay [15] concerns Pseudomonas aeruginosa. In words: Anti-bacterial activity against Pseudomonas aeruginosa ATCC 27853 assessed as inhibition of bacterial growth. The settings on record: Pseudomonas aeruginosa, ATCC 27853; read-out: MIC.
Assay [16] has as its system Pseudomonas aeruginosa. In words: Anti-bacterial activity against Pseudomonas aeruginosa ATCC 15442 assessed as inhibition of bacterial growth. The settings on record: Pseudomonas aeruginosa, ATCC 15442; read-out: MIC.
The subject of assay [17] is Pseudomonas aeruginosa. In words: Anti-bacterial activity against Pseudomonas aeruginosa ATCC 9027 assessed as inhibition of bacterial growth.
Assay [18] relates to Pseudomonas aeruginosa. In words: Anti-bacterial activity against Pseudomonas aeruginosa CMCC (B) 10104 assessed as inhibition of bacterial growth. The settings on record: Pseudomonas aeruginosa, CMCC (B) 10104; read-out: MIC.
The test system of assay [19] is Acinetobacter baumannii. In words: Anti-bacterial activity against Acinetobacter baumannii R674 assessed as inhibition of bacterial growth.
The subject of assay [20] is Candida albicans. In words: Anti-fungal activity against Candida albicans assessed as inhibition of fungal growth. The settings on record: Candida albicans; read-out: MIC.
Assay [21] deals with Candida albicans. In words: Anti-fungal activity against Candida albicans 90023 assessed as inhibition of fungal growth.
Assay [22] has as its system Candida tropicalis. In words: Anti-fungal activity against Candida tropicalis assessed as inhibition of fungal growth. The settings on record: Candida tropicalis; read-out: MIC.
The test system of assay [23] is Candida parapsilosis. In words: Anti-fungal activity against Candida parapsilosis assessed as inhibition of fungal growth. To be noted: Lodderomyces parapsilosis; read-out: MIC.

In brackets after ≈: the same amount, converted by molar mass.

For orientation: MIC means the lowest concentration that inhibits growth of the organism. As for `CCCCc1nc(Cl)c(C2NC(=O)NC(CN3CCN(CC(=O)c4ccc(C)cc4)CC3)=C2C(=O)OCC)[nH]1` (configuration not stated), the MIC in assay [1] was 230 µM (≈ 128 µg/mL); in assay [2], 115 µM (≈ 64.1 µg/mL); in assay [3] it was 58 µM (≈ 32.3 µg/mL); in assay [4], 230 µM (≈ 128 µg/mL); in assay [5] it was 460 µM (≈ 256 µg/mL); in assay [6], 58 µM (≈ 32.3 µg/mL). Also, the MIC in assay [7] is 58 µM (≈ 32.3 µg/mL); in [8] it was 230 µM (≈ 128 µg/mL); in [9], 230 µM (≈ 128 µg/mL); in assay [10] it was 460 µM (≈ 256 µg/mL); in assay [11], 58 µM (≈ 32.3 µg/mL); in assay [12] it was 29 µM (≈ 16.2 µg/mL). Moreover, the MIC in [13] came out at 115 µM (≈ 64.1 µg/mL); in assay [14], 58 µM (≈ 32.3 µg/mL); in assay [15] it was 230 µM (≈ 128 µg/mL); in assay [16], 460 µM (≈ 256 µg/mL); in [17], 29 µM (≈ 16.2 µg/mL); in [18] it was 230 µM (≈ 128 µg/mL). Besides, the minimum inhibitory concentration (MIC) in [19] came out at 115 µM (≈ 64.1 µg/mL); in [20], 460 µM (≈ 256 µg/mL); in assay [21], 230 µM (≈ 128 µg/mL); in [22], 460 µM (≈ 256 µg/mL); in [23] it was 460 µM (≈ 256 µg/mL).

As to `CCCCc1nc(Cl)c(C2NC(=O)NC(CN3CCN(CC(=O)c4ccccc4)CC3)=C2C(=O)OCC)[nH]1` (configuration not stated), the MIC amounted to 236 µM (≈ 128 µg/mL) in [1]; 59 µM (≈ 32 µg/mL) in [2]; 236 µM (≈ 128 µg/mL) in assay [3]; 236 µM (≈ 128 µg/mL) in assay [4]; 472 µM (≈ 256 µg/mL) in assay [5]; 59 µM (≈ 32 µg/mL) in assay [6]. Besides, the MIC in assay [7] is 59 µM (≈ 32 µg/mL); in [8], 236 µM (≈ 128 µg/mL); in [9] it was 236 µM (≈ 128 µg/mL); in assay [10], 472 µM (≈ 256 µg/mL); in [11], 59 µM (≈ 32 µg/mL); in assay [12], 118 µM (≈ 64.1 µg/mL). In addition, the minimal inhibitory concentration (MIC) in assay [13] amounted to 59 µM (≈ 32 µg/mL); in assay [14], 118 µM (≈ 64.1 µg/mL); in assay [15], 118 µM (≈ 64.1 µg/mL); in assay [16] it was 118 µM (≈ 64.1 µg/mL); in assay [17], 118 µM (≈ 64.1 µg/mL); in [18], 118 µM (≈ 64.1 µg/mL). The MIC in [19] stood at 118 µM (≈ 64.1 µg/mL); in assay [20], 472 µM (≈ 256 µg/mL); in [21] it was 15 µM (≈ 8.15 µg/mL); in assay [22] it was 472 µM (≈ 256 µg/mL); in [23], 472 µM (≈ 256 µg/mL).

With `CCOC(=O)C1=C(CN2CCN(C(=O)/C(=N/OC)c3csc(N)n3)CC2)NC(=O)NC1c1ccc(OC)cc1` (configuration not stated), the MIC in assay [1] is 230 µM (≈ 128 µg/mL); in assay [2] it was 115 µM (≈ 64.1 µg/mL); in assay [3], 58 µM (≈ 32.3 µg/mL); in assay [4], 230 µM (≈ 128 µg/mL); in assay [5], 115 µM (≈ 64.1 µg/mL); in assay [6] it was 230 µM (≈ 128 µg/mL). The MIC in assay [7] amounted to 115 µM (≈ 64.1 µg/mL); in [8] it was 230 µM (≈ 128 µg/mL); in assay [9], 115 µM (≈ 64.1 µg/mL); in [10], 115 µM (≈ 64.1 µg/mL); in assay [11], 58 µM (≈ 32.3 µg/mL); in assay [12], 115 µM (≈ 64.1 µg/mL). Moreover, the MIC in assay [13], in [14], in assay [15], in assay [16], in assay [17] and in [18] was 230 µM (≈ 128 µg/mL) each time. Moreover, the MIC is 115 µM (≈ 64.1 µg/mL) in assay [19]; 470 µM (≈ 262 µg/mL) in assay [20]; 7 µM (≈ 3.9 µg/mL) in [21]; 470 µM (≈ 262 µg/mL) in assay [22]; 470 µM (≈ 262 µg/mL) in assay [23].

Consider `CCOC(=O)C1=C(CN2CCN(C(=O)/C(=N/OC)c3csc(N)n3)CC2)NC(=O)NC1c1ccc(Cl)cc1Cl` (configuration not stated), for which the MIC turned out to be 108 µM (≈ 64.4 µg/mL) in assay [1]; 27 µM (≈ 16.1 µg/mL) in assay [2]; 27 µM (≈ 16.1 µg/mL) in assay [3]; 108 µM (≈ 64.4 µg/mL) in [4]; 54 µM (≈ 32.2 µg/mL) in assay [5]; 54 µM (≈ 32.2 µg/mL) in assay [6]. In addition, the MIC in [7] is 108 µM (≈ 64.4 µg/mL); in assay [8], 54 µM (≈ 32.2 µg/mL); in assay [9] it was 54 µM (≈ 32.2 µg/mL); in [10], 108 µM (≈ 64.4 µg/mL); in assay [11], 54 µM (≈ 32.2 µg/mL); in assay [12], 108 µM (≈ 64.4 µg/mL). For the same molecule, the minimum inhibitory concentration (MIC) in [13] was 54 µM (≈ 32.2 µg/mL); in [14], 54 µM (≈ 32.2 µg/mL); in [15] it was 54 µM (≈ 32.2 µg/mL); in assay [16] it was 54 µM (≈ 32.2 µg/mL); in [17] it was 108 µM (≈ 64.4 µg/mL); in assay [18], 54 µM (≈ 32.2 µg/mL). Moreover, the MIC was 27 µM (≈ 16.1 µg/mL) in assay [19]; 449 µM (≈ 268 µg/mL) in [20]; 449 µM (≈ 268 µg/mL) in [21]; 449 µM (≈ 268 µg/mL) in [22]; 449 µM (≈ 268 µg/mL) in [23].
